Where “and” joins values, the source holds several entries; their conditions need not be identical. Identical values can stand only once. Primed or numbered codes have the meaning given here. 13C‑Gly = glycine labeled with carbon-13 (13C); Bz′ = not defined here
Tests used:
Wistar male rat pancreas = test: Model of chronic pancreatitis by oleic acid injection into the pancreatic duct: enzyme contents; format: in vivo
Protocol: A model of chronic pancreatitis in rats were prepared by injecting oleic acid into the pancreatic duct (Mundlos et al., Pancreas 1:29 (1986)). After overnight fast, a Wistar male rat of 5 weeks old was anesthetized by intraperitoneal administration of Nembutal (50 mg/kg). The abdominal wall was shaved and the rat was fixed supinely on an operating table. An Isodine solution was applied to sterilize, and a 3 to 4 cm midline incision was made on the abdomen. The duodenum and the pancreas were drawn out and a 25 G needle was pierced through the duodenal wall. A polyethylene cannula (PE-10) was inserted through the pierced hole into the duodenum and further inserted into the common bile duct by about 5 mm from the papilla. The inserted cannula was fixed by a microclip. Further, the biliary duct was closed by a microclip in order to prevent oleic acid from flowing into the liver. Oleic acid (50 μl) was injected at a rate of 20 μl/min by a microsyringe pump. After the injection was completed, the rat was allowed to stand for 2 minutes so that the oleic acid was distributed throughout the pancreas. The microclips and cannula were removed and the duodenum was returned. The endothelium was sutured with silk thread (Nescosuture silk suture thread 3-0, Nihon Shoji KK) and the outer skin was sutured with a skin stapler (Appose ULC, No. 8034-12, 5.7×3.8 mm). As a control, only laparotomy was carried out. These rats subjected to the operation were kept under free intake of standard food and water at 23° C., relative humidity of 55% until use. After injecting oleic acid into the pancreatic duct and being kept for 3 weeks, these rats (oleic acid-injected rats) were subjected to measurement of amylase in the blood, and to quantitative determination of chymotrypsinogen and amylase contents in the pancreas (FIG. 1). An extraction buffer (20 mM HEPPS+Na, pH 8.0, 100 mM KCl, 0.5% (w/v) Triton X-100) was added to the removed pancreas to the total volume of 10 ml. The material was subjected to ultrasonic disruption (Bionic 7250, Seiko, Sonics & Materials) and centrifuged at 10,000×g for 20 minutes to yield a pancreatic extract as a supernatant. […] After the reaction, 10 μl of 100% (W/V) TCA solution was added and centrifuged at 15,000×g for 5 minutes and the PABA in the supernatant was quantitatively determined using a PABA measuring kit (Eisai). The amylase activity in the pancreatic extract was measured using Fuji Dri-Chem. Both units of activity (U) show μ mole release/min.

[1] = test system: chronic pancreatitis rats and control (normal) rats; test: ^13C-breath test (Δ^13C in exhaled CO2 after oral administration); format: in vivo, rat; details: for Δ^13C (‰) value at 30 minutes after the administration (group mean): 30 mg/kg oral; for Δ^13C (‰) (mean) value at 15 minutes after the administration: 420 mg/kg oral
Protocol: A model of chronic pancreatitis in rats were prepared by injecting oleic acid into the pancreatic duct (Mundlos et al., Pancreas 1:29 (1986)). After overnight fast, a Wistar male rat of 5 weeks old was anesthetized by intraperitoneal administration of Nembutal (50 mg/kg). The abdominal wall was shaved and the rat was fixed supinely on an operating table. An Isodine solution was applied to sterilize, and a 3 to 4 cm midline incision was made on the abdomen. The duodenum and the pancreas were drawn out and a 25 G needle was pierced through the duodenal wall. A polyethylene cannula (PE-10) was inserted through the pierced hole into the duodenum and further inserted into the common bile duct by about 5 mm from the papilla. The inserted cannula was fixed by a microclip. Further, the biliary duct was closed by a microclip in order to prevent oleic acid from flowing into the liver. Oleic acid (50 μl) was injected at a rate of 20 μl/min by a microsyringe pump. After the injection was completed, the rat was allowed to stand for 2 minutes so that the oleic acid was distributed throughout the pancreas. The microclips and cannula were removed and the duodenum was returned. The endothelium was sutured with silk thread (Nescosuture silk suture thread 3-0, Nihon Shoji KK) and the outer skin was sutured with a skin stapler (Appose ULC, No. 8034-12, 5.7×3.8 mm). As a control, only laparotomy was carried out. These rats subjected to the operation were kept under free intake of standard food and water at 23° C., relative humidity of 55% until use.
The rat of 9 weeks old was fixed without anesthesia in a rat holder for a microwave irradiation apparatus. The breath was collected at a rate of about 100 to 300 ml/min using a stroke pump (Variable Stroke Pump VS-500, Shibata Kagaku Kogyo) and introduced directly to a flow cell of a ^13CO2 analyzer EX-130S (Nihon Bunko). A Perma Pure drier (MD-050-12P, Perma Pure INC.) was set between the rat holder and stroke pump to remove out water vapor in the breath. […]
Output data from the ^13CO2 analyzer were AD converted and put into a personal computer (Apple Power Macintosh 8500). Using a data processing soft ware Lab VIEW (National Instruments), 10 data points at every 100 msec were integrated and averaged in an interval of 5 seconds and converted to ^13C atom %, Δ^13C (‰), and CO2 concentration (%) In this manner, the ^13C breath test was continuously carried out. […] CO2 concentration in the collected breath was held at 3±0.5%.
Δ^13C (‰) was calculated from the ^13C concentration in the exhaled CO2 at each time point (^13C tmin) and the ^13C concentration in standard CO2 (^13C std) according to the following equation: Δ^13C (‰)=[(^13C tmin−^13C 0min)/^13C std]×1000

[2] = molecular target: T1, chymotrypsin (from bovine pancreas) (Bos taurus, UniProt P00766); test: Degradation by chymotrypsin (leucine released, ninhydrin reaction); format: biochemical
T1 construct: purchased Worthington Biochemical Corporation #1432, Lot 37A906; host or cells: bovine pancreas (natural source)
Protocol: Bz-DL-Phe-(^13C-Leu) was reacted with chymotrypsin and the degradation product, leucine, generated upon action of chymotrypsin was quantitatively determined by ninhydrin reaction. The reaction was carried out in 20 mM HEPPS-Na (pH 8.0), 23 mM Bz-DL-Phe-(^13C-Leu), 0.16 mg/ml chymotrypsin (from bovine pancreas, Worthington Biochemical Corporation, #1432, Lot 37A906) at 37° C. for 15 minutes. After reaction, 50 μl of citrate buffer (citric acid monohydrate), 20 μl of ninhydrin solution (50 mg/ml solution in methyl cellosolve) and 100 μl of KCN solution (0.01 M aqueous KCN solution diluted 50 times with methyl cellosolve) were added to 100 μl of the reaction mixture and heated at 100° C. for 15 minutes. After cooling the ninhydrin reaction mixture to room temperature, 150 μl of 60% (V/V) ethanol was added to 100 μl of the ninhydrin reaction mixture and stirred followed by determination of an absorbance at a wave length of 570 nm. An experiment wherein all the reactions that were carried out without adding Bz-DL-Phe-(^13C-Leu) was taken as a “blank,” and leucine was used as a standard.

[3] = oleic acid-injected rats (n=17), 50 μl into pancreatic duct, 3 weeks after
[4] = chronic pancreatitis rats #1-#4, 250 mg/kg oral
[5] = chronic pancreatitis rats (n=4), 250 mg/kg oral
[6] = normal rats #1-#4, 250 mg/kg oral
[7] = normal rats (n=4), 250 mg/kg oral

CCCCCCCC/C=C\CCCCCCCC(=O)O [oleic acid]
rats evaluated to have pancreatitis (chymotrypsinogen content below mean−2SD of control) (Wistar male rat pancreas; 12 rats among 17 oleic acid-injected rats): 70%
blood amylase concentration (Wistar male rat pancreas; oleic acid-injected rats (n=17), 3 weeks after): 2137 U
amylase content in the pancreas (Wistar male rat pancreas; [3]): 789 U
chymotrypsinogen content in the pancreas (Wistar male rat pancreas; [3]): 8.1 U

Arg-(^13C-Leu)
Δ^13C (‰) at 30 min, individual rat ([1]; chronic pancreatitis rats #1-#4, 30 mg/kg oral): 3.74 ‰ and 6.97 ‰ and 4.87 ‰ and 1.92 ‰
Δ^13C (‰) value at 30 minutes after the administration (group mean) ([1]; chronic pancreatitis rats (n=4)): 4.37±1.83 ‰
Δ^13C (‰) at 30 min, individual rat ([1]; normal rats #1-#4, 30 mg/kg oral): 13.74 ‰ and 15.37 ‰ and 10.08 ‰ and 10.30 ‰
Δ^13C (‰) value at 30 minutes after the administration (group mean) ([1]; normal rats (n=4)): 12.37±2.26 ‰

Bz-Ala-Ala-Ala-Ala-(^13C-Gly)-Phe-Leu ({Bz′}-AAAA-{13C‑Gly-Phe-Leu})
Δ^13C (‰) at 15 min, individual rat ([1]; chronic pancreatitis rats #1-#2, 420 mg/kg oral): −1.90 ‰ and 3.12 ‰
Δ^13C (‰) (mean) value at 15 minutes after the administration ([1]; chronic pancreatitis rats (n=2)): 0.61 ‰
Δ^13C (‰) at 15 min, individual rat ([1]; normal rats #1-#2, 420 mg/kg oral): 23.47 ‰ and 43.16 ‰
Δ^13C (‰) (mean) value at 15 minutes after the administration ([1]; normal rats (n=2)): 33.32 ‰

Bz-Arg-(^13C-Leu).HCl
Δ^13C (‰) at 20 min, individual rat ([1]; chronic pancreatitis rats #1-#3, 100 mg/kg oral): 3.69 ‰ and 11.25 ‰ and −5.79 ‰
Δ^13C (‰) value at 20 minutes after the administration (group mean) ([1]; chronic pancreatitis rats (n=3), 100 mg/kg oral): 3.05±6.97 ‰
Δ^13C (‰) at 20 min, individual rat ([1]; normal rats #1-#3, 100 mg/kg oral): 79.91 ‰ and 51.94 ‰ and 74.46 ‰
Δ^13C (‰) value at 20 minutes after the administration (group mean) ([1]; normal rats (n=3), 100 mg/kg oral): 68.77±12.01 ‰

Bz-DL-Phe-(^13C-Leu)
rate of degradation ([2]; 23 mM substrate, 0.16 mg/ml chymotrypsin, 20 mM HEPPS-Na pH 8.0, 37° C., 15 minutes): 1.72 nmole/mg chymotrypsin/min
substrate for chymotrypsin ([2]; same reaction, leucine produced): could be a substrate for chymotrypsin
time course of Δ^13C (‰) ([1]; 7 cases of the chronic pancreatitis rats (n=8), 250 mg/kg oral): the degree of increase was small and continued to slowly increase for 30 minutes

Bz-L-Phe-(^13C-Leu)
Δ^13C (‰) at 10 min, individual rat [1, 4]: 1.61 ‰ and 3.28 ‰ and 17.21 ‰ and 5.77 ‰
Δ^13C (‰) value at 10 minutes after the administration (group mean) [1, 5]: 6.97±6.09 ‰
Δ^13C (‰) at 10 min, individual rat [1, 6]: 60.25 ‰ and 165.37 ‰ and 203.16 ‰ and 31.29 ‰
Δ^13C (‰) value at 10 minutes after the administration (group mean) [1, 7]: 115.02±71.26 ‰

Bz-Tyr-(^13C-Leu)
Δ^13C (‰) at 20 min, individual rat [1, 4]: 8.76 ‰ and 3.58 ‰ and 2.44 ‰ and −0.15 ‰
Δ^13C (‰) value at 20 minutes after the administration (group mean) [1, 5]: 3.66±3.24 ‰
Δ^13C (‰) at 20 min, individual rat [1, 6]: 65.76 ‰ and 21.02 ‰ and 80.02 ‰ and 111.32 ‰
Δ^13C (‰) value at 20 minutes after the administration (group mean) [1, 7]: 69.53±32.50 ‰

— patent US7232559B1, “Diagnostic agents for pancreatic exocrine function” (Tokyo Gas Company Limited, priority 1999, dated 2007)
